According to patent US7078499B2, “Nucleotide analogues comprising a reporter moiety and a polymerase enzyme blocking moiety” (GE Healthcare UK Limited, priority 2000, dated 2006):

Molecular target: T1, leucine aminopeptidase (Sus scrofa, UniProt P15145)
T1 construct: purchased Sigma L0632
Assay: Enzyme cleavage of 4′ blocking group by leucine aminopeptidase
Format: biochemical
Conditions: 0.25 units leucine aminopeptidase, 37° C., 47 mM sodium phosphate pH 7.2, 3.3% methanol
Experimental: 1 mg of 4′-C-(N-Leucylaminomethyl)thymidine (21) is incubated at 37° C. in 47 mM sodium phosphate pH 7.2 with 3.3% methanol and 0.25 units leucine aminopeptidase (Sigma L0632), to a final volume of 200 ul.
The products resulting from a), b) or c) above are analysed by thin layer chromatography using reverse phase plates with 10% acetonitrile in water or by electrospray mass spectrometry. Successful cleavage reactions yield nucleosides running concurrently with 4′-aminomethylthymidine which is used as a standard.

T1 sequence (P15145 whole entry): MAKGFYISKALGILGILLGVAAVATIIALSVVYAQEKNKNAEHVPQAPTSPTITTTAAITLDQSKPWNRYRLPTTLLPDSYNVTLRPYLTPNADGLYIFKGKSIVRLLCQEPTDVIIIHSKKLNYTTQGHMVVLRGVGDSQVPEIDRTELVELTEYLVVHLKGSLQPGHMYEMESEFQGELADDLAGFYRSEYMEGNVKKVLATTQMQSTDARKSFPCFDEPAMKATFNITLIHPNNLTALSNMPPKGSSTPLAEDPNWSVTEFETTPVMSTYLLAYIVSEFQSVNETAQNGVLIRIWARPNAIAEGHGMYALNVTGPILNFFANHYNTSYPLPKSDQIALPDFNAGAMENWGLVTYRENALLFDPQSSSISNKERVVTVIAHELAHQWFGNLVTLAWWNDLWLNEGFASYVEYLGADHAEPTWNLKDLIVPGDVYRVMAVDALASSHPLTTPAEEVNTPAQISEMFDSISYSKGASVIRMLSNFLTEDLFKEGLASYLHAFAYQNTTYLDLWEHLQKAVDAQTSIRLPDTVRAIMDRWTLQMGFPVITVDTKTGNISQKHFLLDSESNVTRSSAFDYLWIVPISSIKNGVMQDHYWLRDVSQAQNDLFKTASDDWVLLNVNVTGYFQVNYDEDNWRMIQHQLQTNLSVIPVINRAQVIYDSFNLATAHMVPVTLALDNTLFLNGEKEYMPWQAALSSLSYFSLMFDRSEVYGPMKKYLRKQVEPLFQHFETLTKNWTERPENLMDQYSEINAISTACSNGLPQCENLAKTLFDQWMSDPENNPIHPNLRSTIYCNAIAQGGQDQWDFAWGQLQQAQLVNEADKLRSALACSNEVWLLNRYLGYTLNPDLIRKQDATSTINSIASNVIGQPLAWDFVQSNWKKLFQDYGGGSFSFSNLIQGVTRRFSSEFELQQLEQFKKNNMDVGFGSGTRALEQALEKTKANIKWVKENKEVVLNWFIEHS

SMILES: Cc1cn([C@H]2C[C@H](O)[C@](CO)(CNC(=O)[C@@H](N)CC(C)C)O2)c(=O)[nH]c1=O [compound (21), 4′-C-(N-Leucylaminomethyl)thymidine]
- cleavage of 4′ blocking group (mass spectrometric detection of daughter ion mass 242): enzyme induced cleavage of the amino acid
